Test results taken from PubChem BioAssay (NCI).
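Step 1: Grow cells in 96-well plates. Step 2: Expose to compound for 48 hours at 5 concentrations. Step 3: Interpolate endpoints linearly; if unreached, use highest concentration. TGI is the concentration that stops growth completely.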 Where a SMILES comes first, the peptide text is derived from it. The star is where a group is joined. Cbz = O=C(OCc1ccccc1)*; Boc = CC(C)(C)OC(=O)*; OBn = c1ccc(CO*)cc1

Tests used:
Assay in all cases: NCI-60 cell line screen, 48 h
EKVX NSCLC = system: EKVX NSCLC
SF-295 CNS = system: SF-295 CNS
SR leukemia = system: SR leukemia
DLD-1 colon = system: DLD-1 colon
DMS 114 small cell lung = system: DMS 114 small cell lung
KM20L2 colon = system: KM20L2 colon
LXFL 529 NSCLC = system: LXFL 529 NSCLC
M19-MEL melanoma = system: M19-MEL melanoma
SNB-78 CNS = system: SNB-78 CNS
XF 498 CNS = system: XF 498 CNS

Row | Compound | TGI (EKVX NSCLC) [µM] | TGI (SF-295 CNS) [µM] | TGI (SR leukemia) [µM] | further results
1 | COc1cc(/C=C2\N=C(c3ccccc3)N(/N=C/c3cc4cc(C)ccc4nc3Cl)C2=O)ccc1O | > 100 | > 100 | 47.1 | 
2 | COC(=O)C(CCCCNC(=O)OCc1ccccc1)NC(=O)C(CCC(=O)OCc1ccccc1)NC(=O)OC(C)(C)C (stereo not drawn) (Boc-Glu(OBn)-Lys(Cbz)-OMe; configuration not given here) | > 100 | > 100 | > 100 | 
3 | N=C1SCCS1 | > 100 | > 100 |  | TGI (DLD-1 colon): > 100 µM; TGI (DMS 114 small cell lung): > 100 µM; TGI (KM20L2 colon): > 100 µM; TGI (LXFL 529 NSCLC): > 100 µM; TGI (M19-MEL melanoma): > 100 µM; TGI (SNB-78 CNS): > 100 µM; TGI (XF 498 CNS): > 100 µM
4 | COC(=O)C1(Cc2ccccc2C)Cc2ccc(C)cc2C1=O (stereo not drawn) | > 100 | > 100 | 33.1 | 
5 | CCOC(=O)/C(C#N)=N\Nc1ccc(-n2c(C)nc3ccc(Br)cc3c2=O)cc1 | > 100 | > 100 | > 100 | 
6 | COC(=O)/C=C(\S/C(=C(/c1ccccc1)n1cc(C(=O)OC)c(C(=O)OC)n1)c1ccccc1)C(=O)OC | 32.1 | > 100 | 32.6 | 
7 | O=[N+]([O-])c1ccc2nc(/C=C(\O)c3ccccc3)c(/C=C(\O)c3ccc(Cl)cc3)nc2c1 | > 100 | > 100 | > 100 | 
8 | CCOP(=O)(OCC)OC1CC(n2cnc3c(N(CC)CC)ncnc32)OC1CO[Si](C)(C)C(C)(C)C (stereo not drawn) | 20.5 | 31 | > 100 | 
9 | O=c1[nH]nc(Cc2ccc(Cl)cc2)n1Nc1ccccc1 | > 100 | > 100 |  | 
10 | COc1ccc2[nH]c3c(c2c1)CCc1ccccc1-3 | > 100 | > 100 | > 100 | 
11 | CC(C)(C)OC(=O)N1CCC[C@H]1CSC[C@@H]1CCCN1C(=O)OC(C)(C)C | > 100 | > 100 |  | 
12 | COc1cc(O)c2c(=O)cc(C3(OC(C)=O)C=CC(OC4OC(CO)C(O)C(O)C4O)C=C3)oc2c1 (stereo not drawn) | > 100 | > 100 | > 100 | 
13 | CC(=O)Nc1ccc2c(c1)C(=Nc1ccc(C(=O)O)cc1)c1ccccc1-2 | 84.9 | > 100 |  | 
14 | NC1=NC(=O)[C@H](CSCc2ccccc2)N1C(=O)OCc1ccccc1 | > 100 | > 100 | > 100 | 
15 | Nc1nc(SCC(=O)c2ccccc2)nc2nc3c(c(-c4ccccc4)c12)CCCC3 | > 100 |  | > 100 | 
16 | CCCN=C1S/C(=C/c2ccc(OC)c(OC)c2)C(=O)N1c1ccccc1 | > 100 | 34.9 | > 100 | 
17 | OCC1OC(NC(=S)NCSCCC(F)(F)C(F)(F)C(F)(F)C(F)(F)C(F)(F)C(F)(F)F)C(O)C(O)C1O (stereo not drawn) |  | 60.5 | > 100 | 
18 | Cc1ccc(CCCC(=O)O)cc1C | > 100 | > 100 | > 100 | 
19 | CC1=NN(c2ccccc2Cl)C2(C1)SCC(=O)N2c1nc2ccccc2s1 (stereo not drawn) | > 100 | > 100 |  | 
20 | c1ncc(C23C4C5C6C4C2C6C53)[nH]1 (stereo not drawn) | > 100 | > 100 | > 100 | 
21 | NC(=S)NS(=O)(=O)c1ccc(F)cc1 | > 100 | > 100 |  | 
22 | COC(=O)C(NC(=O)C12CCC(C)(C(=O)O1)C2(C)C)c1cc(C(C)(C)C)c(O)c(C(C)(C)C)c1 (stereo not drawn) | > 100 | > 100 | > 100 | 
23 | c1ccc(NC2(c3nnnn3C3CCCCC3)CCNCC2)cc1 | 79.7 | 34.6 | 36.1 | 
24 | O=C1NC(c2ccccc2)C1N(Cc1ccccc1)Cc1ccccc1 (stereo not drawn) | > 100 | > 100 | > 100 | 
25 | CSc1nc2ccccc2c(=O)n1-c1cccc(C)c1 | > 100 | > 100 | 49.7 | 
26 | COc1ccc2c(c1)OCC1Cc3cccc(OC)c3OC21 (stereo not drawn) | > 100 | > 100 | > 100 | 

Row | Compound | TGI (EKVX NSCLC) [µM] | TGI (SF-295 CNS) [µM] | TGI (SR leukemia) [µM] | further results
27 | COc1ccc(-n2c(-c3ccccc3)cc(-c3cccs3)c2-c2cccs2)cc1 | > 100 | > 100 | > 100 | 
28 | O=C1c2cc([N+](=O)[O-])cnc2S(=O)(=O)N1c1ccc(Oc2ccccc2)cc1 | > 100 | > 100 | > 100 | 
29 | COC(=O)c1c(OC(C)=O)ccc2c1c1c(n2Cc2ccccc2)C(=O)c2ccccc2C1=O | 48.3 | 38.5 | 64.5 | 
30 | COc1ccc(N=C/C=C/C(=C/COC(C)=O)OC(C)=O)cc1 | > 100 | > 100 | > 100 | 
31 | COC(=O)C1CCCCCCCCCCC12SCCCS2 (stereo not drawn) | 35.6 | 39 | 34.9 | 
32 | CC(=O)Nc1ccccc1S(=O)(=O)c1c(-c2c(C)c(Cl)c(C)c(Cl)c2C)noc1C | > 100 | > 100 | 43.2 | 
33 | Cc1ccc2c(c1)C(=O)c1ccc(C)nc1C2=O | > 100 | > 100 | > 100 | 
34 | COc1ccc(C(c2ccccc2)N2C(=O)CCC2C(=O)O)cc1OC (stereo not drawn) | > 100 | > 100 | > 100 | 
35 | O=C(O)c1ccccc1/C=C1\Cc2ccc3c(c2C1=O)CCCC3 | > 100 | 99.5 | 61 | 
36 | COC(=O)[C@H]1[C@H](OC(=O)[C@@H](OC)c2ccccc2)ON2CC[C@@H](OC(=O)c3ccccc3)[C@H]12 | > 100 | > 100 | > 100 | 
37 | N#CCCN(CCC#N)c1ccc(/C=C2\N=C(c3ccccc3)N(NC(=O)c3ccncc3)C2=O)cc1 | > 100 | > 100 |  | 
38 | CC(=O)/C(=C\n1c(=S)[nH]c2ccc([N+](=O)[O-])cc21)C(=O)Nc1ccccc1C | > 100 | > 100 | > 100 | 
39 | CC(C)=CCc1c(O)c(CC=C(C)C)c2oc3c(c(=O)c2c1O)C(C=C(C)C)Oc1cc(O)ccc1-3 (stereo not drawn) | 14.5 | 19.2 | 8.29 | 
40 | ClCc1nc2cc(Cl)ccc2o1 | 8.89 | 37.4 | > 37 | 
41 | CN(N=O)C(N)=NC(=O)c1ccccc1 | > 100 | > 100 | > 100 | 
42 | Cc1c(/C=N\NC(=S)N(C)CCN(C)C(=S)N/N=C\c2c(C)n(C)n(-c3ccccc3)c2=O)c(=O)n(-c2ccccc2)n1C | > 100 | > 100 | > 100 | 
43 | N#Cc1c(-c2ccccc2)cc(Nc2ccc(F)cc2)n2c1nc1ccccc12 | > 29.1 | > 29.6 | > 100 | 
44 | CCOC(=O)c1c(C)n(-c2ccc(C)cc2)c2c1cc(O)c1[nH]c3c(c12)CCCC3 | 99.7 | 65.2 | 11.5 | 
45 | N/C(=N/O)c1cn(C2OC(CO)C(O)C2O)c2ncnc(NO)c12 (stereo not drawn) | > 100 | 54.7 | 0.262 | 
46 | C=CCSC1=N/C(=C\c2ccco2)C(=O)N1CC=C | > 100 | > 100 | > 100 | 
47 | C[N+](C)(C)C(Cc1c[nH]c(=S)[nH]1)C(=O)O (stereo not drawn) | > 100 | > 100 | > 100 | 
48 | CCOC(=O)C(NC(=O)Nc1ccccc1F)(OC)C(F)(F)F (stereo not drawn) | > 100 |  | > 100 | 
49 | CCCNc1c(Cl)cc(Cl)c2[nH]c3ccccc3c(=O)c12 | > 100 | > 100 | > 100 | 
50 | CC(C)Cn1cnnc1NS(=O)(=O)c1cc(C(=O)NN)c(Cl)cc1S | > 10 | > 10 |  | 
51 | O=C(c1no[n+]([O-])c1C(=O)c1csc2ccccc12)c1csc2ccccc12 | 12.5 | 29 | 0.27 | 
52 | CCOC(=O)c1cc(NC(=O)c2ccccc2)c(=O)n2c(cc3c(Cl)cccc32)c1O | > 100 | > 100 | > 100 | 

Row | Compound | TGI (EKVX NSCLC) [µM] | TGI (SF-295 CNS) [µM] | TGI (SR leukemia) [µM] | further results
53 | Cc1cc2c(cc1-c1cc3c(cc1C)C(C(C)C)=C(O)C(=O)/C3=C\Nc1cccc3c(N)cccc13)/C(=C/Nc1cccc3c(N)cccc13)C(=O)C(O)=C2C(C)C | > 100 | > 100 | > 100 | 
54 | O=Cc1cc(O)ccc1Br | > 100 | 99.5 | 17.3 | 
55 | CC1(C)O[C@@H]([C@@H](O)[C@H](O)C2SCCCS2)[C@@H](CO)O1 | > 100 | > 100 |  | 
56 | CCOC(=O)CC(=O)Nc1c(C(=O)OCC)sc2nc(SC)nc(Nc3ccc(OC)c(OC)c3)c12 | > 100 | 76.1 |  | 
57 | Nc1nc(Cl)cc(NCC2(CO)CC(O)C2)n1 (stereo not drawn) | > 100 | > 100 | > 100 | 
58 | Brc1ccc(C2(N3CCCCC3)CCCCC2)s1 | > 100 | > 100 | 44.3 | 
59 | O=C(CCl)Nc1ccc(-c2nc3ccccc3s2)cc1 | 17.1 | 15 | 5.49 | 
60 | O=C(N/N=C1\CCc2ccccc21)N/N=C1\CCc2ccccc21 |  | > 100 | > 100 | 
61 | c1ccc2c(-c3ccnc(-c4c[nH]c5ccccc45)n3)c[nH]c2c1 | > 100 | > 100 | 19.4 | 
62 | CSc1ccc(C=C2N=C(c3ccccc3)N(c3cc(C(=O)c4ccccc4)ccc3N3C(=O)/C(=C/c4ccc(SC)cc4)N=C3c3ccccc3)C2=O)cc1 | > 100 | > 100 |  | 
63 | Nc1nc(Cl)c(N)c(NCC2(CO)CC(O)C2)n1 (stereo not drawn) | > 100 | > 100 | > 100 | 
64 | COc1cc([C@@H]2c3cc4c(cc3[C@@H](N=Cc3ccc(C(=O)O[C@H]5C[C@H]6OC[C@@]6(OC(C)=O)[C@H]6[C@H](OC(=O)c7ccccc7)[C@]7(O)C[C@H](OC(=O)[C@H](OC(=O)c8ccc(C=N[C@@H]9c%10cc%11c(cc%10[C@@H](c%10cc(OC)c(O)c(OC)c%10)[C@H]%10C(=O)OC[C@@H]%109)OCO%11)cc8)[C@@H](NC(=O)c8ccccc8)c8ccccc8)C(C)=C([C@@H](OC(C)=O)C(=O)[C@]56C)C7(C)C)cc3)C3COC(=O)C32)OCO4)cc(C)c1O (stereo partly drawn) | > 35.2 | > 50 | > 50 | 
65 | c1cc(-c2ccc(Oc3ccc(-c4ccncc4)cc3)cc2)ccn1 | > 67.1 | > 100 | 9.97 | 
66 | [N-]=[N+]=NC1=C(N=[N+]=[N-])c2cccc3cccc(c23)C1=O | > 100 | > 100 | > 100 | 
67 | CCCCC[C@H]1CC=CC(=O)O1 | 56.7 | 37.1 | 15.4 | 
68 | COc1ccc([N+](=O)[O-])cc1[I+]c1cc([N+](=O)[O-])ccc1OC | > 100 | > 100 | 26.7 | 
69 | COc1cc(-c2c(C(C)=O)c(-c3ccccc3)n(C3OC(COC(C)=O)C(OC(C)=O)C(OC(C)=O)C3OC(C)=O)c(=S)c2C#N)ccc1O (stereo not drawn) | > 100 | > 100 | > 100 | 
70 | O=C(CN1c2ccccc2Sc2ccccc21)n1cnc2ccccc21 | > 100 | > 100 |  | 
71 | O=C1C2=Cc3ccccc3CCN2c2ccc([N+](=O)[O-])cc21 | > 100 | > 100 | > 100 | 
72 | CC(=O)NC1C(OCc2ccccc2)OC(CO)C(O)C1OCC(=O)NC(C)C(=O)NC(CCC(=O)Nc1ccc2c(c1)CN1C(=O)c3ccccc3C1=N2)C(N)=O (stereo not drawn) | > 100 | > 100 | > 100 | 
73 | COc1ccc(/C=N/Nc2nc3ccccc3c(=O)n2-c2ccccc2)cc1 | > 100 | > 100 | > 100 | 
74 | COC1(CCO)CC=CCC1(CCO)OC (stereo not drawn) | > 100 | > 100 |  | 
75 | O=C(O)C1CCCCN1CCc1c[nH]c2ccccc12 (stereo not drawn) | > 100 | > 100 |  | 
76 | CC1(c2nc3ccccc3[nH]2)CCC(CO)C(C)(C)O1 (stereo not drawn) | > 100 | > 100 | 33.7 | 
77 | Cc1oc2nc(N(C)C)n3c(C)nnc3c2c1C | > 100 | > 100 | > 100 | 
78 | O=C1C(c2c(O)n(-c3ccccc3)c3ccccc23)=Nc2ccccc21 | 83.2 | > 100 | > 100 | 
